Data from patent publication US20110136916A1, “6-SHOGAOL FOR USING IN A METHOD FOR THE TREATMENT OF LEUKEMIA” (China Pharmaceutical University, priority 2009, published 2011).
Where two headings read alike, the source gives them in different places.

Key:
[1] = system: human promyelocytic leukemia cell HL-60; assay: MTT anti-proliferation, HL-60; format: cell-based; conditions: for growth inhibition (activities of cells vs control): HL-60, 1-20 μM; for IC50: HL-60, MTT, n = 3
Procedure: (§1) Cells in logarithmic growth phase were collected and then inoculated in 1˜2×10^4 cells/well in a 96-well plate respectively according to the sizes of cells and whether they attached to the wall, the cells were centrifuged and the supernatant was removed after growing for 24 hours, and then drug administration was carried out according to the groups as below: the drug group and the drug free group were set up for tumor cells (the concentrations ranged from 1˜20 μM), 5 or 6 duplicates were set for each group and the cells were incubated for 24 or 72 hours. The supernatant was removed and 100 μl serum free culture solution containing 0.5 mg/ml MTT (tetrazolium) was added for further incubation for 4 hours, subsequently 100 μl DMSO (dimethyl sulfoxide) was added and the plate was kept on the micro-shaker for 10 minutes, and the OD value was determined on a micro-plate reader at the wavelength of 570 nm. Evaluations on the toxicity were carried out on normal human cell line LO-2 and each test was repeated for three times.

[2] = system: human acute myelocytic leukemia cell U937; assay: MTT anti-proliferation, U937; format: cell-based; conditions: for IC50: U937, MTT, n = 3; for growth inhibition (activities of cells vs control): U937, 1-20 μM
Procedure: as §1

[3] = system: human chronic granulocytic leukemia K562; assay: MTT anti-proliferation, K562; format: cell-based; conditions: for IC50: K562, MTT, n = 3; for growth inhibition (activities of cells vs control): K562, 1-20 μM
Procedure: as §1

[4] = system: human leukemia Jurkat cells; assay: Annexin V/PI flow cytometry apoptosis of Jurkat cells; format: cell-based; conditions: for Apoptotic rate: Jurkat
Procedure: Jurkat cells in logarithmic growth phase of growth were collected (3−10×10^5) and inoculated to a 24-well plate in 3×10^5 cells/mL/well, then after incubation for 24 hours, different concentrations of 6-shogaol (0, 1, 2.5, 5, 10 and 15 μM) were added for treatment for 24 hours and also 6-shogaol at a concentration of 15 μM were added for treatment at different durations (0, 2, 4, 6, 12 and 24 h). After reacting with 6-shogaol under different conditions, the cells were collected into 1 mL centrifuge tubes and then centrifuged at 500 rpm (or 100×g) for 5 minutes, the supernatant was removed and the cells were rinsed with 0.01 M PBS at 500 rpm (or 100×g) for 5 minutes twice, and the flow cytometry analysis (Becton Dickinson FACScan Flow Cytometer) was carried out after adding binding solution and staining according to the directions for use of Annexin V/PI double staining kit (BD Company). The FACS data were analyzed by professional operators of the flow cytometer by using FLOWJO software (Tree Star, Calif.) software, the apoptotic rate was counted by the sum of early apoptosis and late apoptosis, and the results were shown in Table 2 and Table 3.

[5] = system: pulmonary carcinoma A549 cells; conditions: 48 hours; read-out: IC50 for inhibiting the proliferation of A549 cells; cited from earlier work
[6] = system: human colon carcinoma COLO 205 cells; conditions: read-out: IC50 for inhibiting the growth of COLO 205 cells; cited from earlier work
[7] = system: human ovarian cancer SK-OV-3 cells; conditions: cited from earlier work
melanoma SK-MEL-2 cells = conditions: cited from earlier work
[8] = system: colon carcinoma HCT15 cells; conditions: cited from earlier work
ddY line mice = conditions: cited from earlier work
[9] = cited from earlier work
[10] = 24 hours, read-out: Mean IC50 after 24 hours
[11] = 72 hours, read-out: Mean IC50 after 72 hours

For CCCCC/C=C/C(=O)CCc1ccc(O)c(OC)c1 [6-shogaol], the “growth inhibition (activities of cells vs control)” value ([1]; 24 hours, FIG. 2) was “significantly decreased”, the “growth inhibition (activities of cells vs control)” value ([1]; 72 hours, FIG. 6) was “significantly decreased” and the IC50 [1, 10] was 6.93 ± 1.28 µM. The IC50 [1, 11] was 3.7 ± 0.25 µM, the IC50 ([1]; Homo sapiens, HL-60, 24 h, 24 hours, read-out: Mean IC50 after 24 hours) was under 10 µM and the IC50 ([1]; Homo sapiens, HL-60, 72 h, 72 hours, read-out: Mean IC50 after 72 hours) was under 5 µM. For the same molecule, the IC50 ([2]; Homo sapiens, U-937, 24 h, 24 hours, read-out: Mean IC50 after 24 hours) was under 10 µM, the IC50 ([2]; Homo sapiens, U-937, 72 h, 72 hours, read-out: Mean IC50 after 72 hours) was under 5 µM and the “growth inhibition (activities of cells vs control)” value ([2]; 24 hours, FIG. 4) was “significantly decreased”. The “growth inhibition (activities of cells vs control)” value ([2]; 72 hours, FIG. 8) was “significantly decreased”, the IC50 [2, 10] was 7.63 ± 0.47 µM and the IC50 [2, 11] was 4.93 ± 0.7 µM. For the same molecule, the IC50 ([3]; Homo sapiens, K562, 24 h, 24 hours, read-out: Mean IC50 after 24 hours) was under 10 µM, the IC50 ([3]; Homo sapiens, K562, 72 h, 72 hours, read-out: Mean IC50 after 72 hours) was under 5 µM and the “growth inhibition (activities of cells vs control)” value ([3]; 24 hours, FIG. 5) was “significantly decreased”. The “growth inhibition (activities of cells vs control)” value ([3]; 72 hours, FIG. 9) was “significantly decreased”, the IC50 [3, 10] was 8.5 ± 0.8 µM and the IC50 [3, 11] was 5 ± 0.62 µM. It also gave an Apoptotic rate ([4]; 1 μM, 24 hours, n = 3) of 11.2 ± 0.9bd %, an Apoptotic rate ([4]; 2.5 μM, 24 hours, n = 3) of 17.8 ± 1.4bd % and an Apoptotic rate ([4]; 5 μM, 24 hours, n = 3) of 25.9 ± 3.2bc %. For the same molecule, the Apoptotic rate ([4]; 10 μM, 24 hours, n = 3) was 48.7 ± 3.1bd %, the Apoptotic rate ([4]; 15 μM, 2 hours, n = 3) was 7.7 ± 2.1% and the Apoptotic rate ([4]; 15 μM, 4 hours, n = 3) was 14.6 ± 2.5ac %. For the same molecule, the Apoptotic rate ([4]; 15 μM, 6 hours, n = 3) was 28.5 ± 3.3bd %, the Apoptotic rate ([4]; 15 μM, 12 hours, n = 3) was 45.3 ± 2.6bd % and the Apoptotic rate ([4]; 15 μM, 24 hours, n = 3 (Table 2)) was 73.2 ± 2.8bd %. The Apoptotic rate ([4]; 15 μM, 24 hours, n = 3 (Table 3)) was 72.3 ± 2.4bd %, the “induction of apoptosis of Jurkat cells (t-test)” value ([4]; summary statement, concentration and time dependent) was “significantly induce the apoptosis” and the IC50 [5] was about 60 µM. The IC50 [6] was over 60 µM, the anti-tumor activities [7] was “certain anti-tumor activities” and the anti-tumor activities (melanoma SK-MEL-2 cells) was “certain anti-tumor activities”. For the same molecule, the anti-tumor activities [8] was “certain anti-tumor activities”, the LD50 (ddY line mice; intraperitoneal injection) was “about 109.2 mg/kg” and the LD50 (ddY line mice; intravenous injection) was “about 50.9 mg/kg”. For the same molecule, the LD50 (ddY line mice; oral administration) was 687 mg/kg, the solubility in ethanol ([9]; ethanol) was “soluble” and the solubility in water ([9]; water) was “insoluble”.
